Data from the NIST ThermoML archive (doi:10.1021/je900478c).

Experiment: xn = mol fraction of the nth substance listed
Conditions: 101 kPa, Liquid; for viscosity: Capillary tube (Ostwald / Ubbelohde) method

CCCCCCOCCOCCO [2-(2-hexyloxyethoxy)ethanol] + O
mass density [kg/m3]
Conditions	283.15 K	288.15 K	293.15 K	303.15 K	313.15 K
x1 = 0.0005	999.68	999.08	998.19	995.64	992.26
x1 = 0.00075	999.67	999.06	998.17	995.59	992.23
x1 = 0.001	999.66	999.07	998.17	995.58	992.18
x1 = 0.00118	999.7	999.09	998.17	995.57	992.11
x1 = 0.00135	999.76	999.14	998.2	995.58	992.03
x1 = 0.0015	999.84	999.17	998.16	995.51	991.94
x1 = 0.00164	999.86	999.18	998.09	–	–
x1 = 0.00196	999.87	999.15	–	–	–
x1 = 0.00225	999.88	999.08	–	–	–
x1 = 0.01501	995.9	–	–	–	–
x1 = 0.01996	994.71	–	–	–	–
x1 = 0.02493	993.53	–	–	–	–
x1 = 0.03004	992.45	–	–	–	–
x1 = 0.03536	991.13	–	–	–	–
x1 = 0.03996	990.1	–	–	–	–
x1 = 0.04496	989.11	–	–	–	–
x1 = 0.0501	988.12	985.54	–	–	–
x1 = 0.05911	986.43	983.76	–	–	–
x1 = 0.06985	984.69	982.01	979.28	–	–
x1 = 0.07977	983.2	980.24	977.23	–	–
x1 = 0.08835	982.02	978.92	975.77	–	–
x1 = 0.09988	980.51	977.4	973.98	–	–
x1 = 0.1332	976.63	973.14	969.58	962.38	–
x1 = 0.2029	970.18	966.49	962.68	955.04	947.26
x1 = 0.2856	964.36	960.42	956.52	948.66	940.71
x1 = 0.3597	960.18	956.18	952.21	944.22	936.21
x1 = 0.4529	955.83	951.8	947.82	939.82	931.76
x1 = 0.5426	952.4	948.39	944.4	936.42	928.33
x1 = 0.6772	948.33	944.25	940.24	932.25	924.21
x1 = 0.827	945.13	941.05	937.03	929.05	921.02
x1 = 1	942.09	938.05	934.06	926.08	918.17

CCCCOCCO [2-butoxyethan-1-ol] + O
Conditions	mass density, 283.15 K [kg/m3]	mass density, 293.15 K [kg/m3]	mass density, 303.15 K [kg/m3]	mass density, 313.15 K [kg/m3]	mass density, 323.15 K [kg/m3]	viscosity, 283.15 K [mPa·s]	viscosity, 293.15 K [mPa·s]	viscosity, 303.15 K [mPa·s]	viscosity, 313.15 K [mPa·s]	viscosity, 323.15 K [mPa·s]
x1 = 0.0005	999.62	998.13	995.57	992.12	–	–	–	–	–	–
x1 = 0.001	999.53	998.01	995.46	992.02	–	–	–	–	–	–
x1 = 0.00201	999.43	997.89	995.29	991.8	–	–	–	–	–	–
x1 = 0.003	999.37	997.78	995.12	991.58	–	–	–	–	–	–
x1 = 0.00399	999.24	997.6	994.89	991.31	–	–	–	–	–	–
x1 = 0.005	999.06	997.34	994.59	990.98	–	–	–	–	–	–
x1 = 0.00601	998.89	997.11	994.27	990.64	–	–	–	–	–	–
x1 = 0.00699	998.86	996.97	994.06	990.36	–	–	–	–	–	–
x1 = 0.00801	998.8	996.83	993.86	990.11	–	–	–	–	–	–
x1 = 0.00896	998.72	996.7	993.69	989.86	–	–	–	–	–	–
x1 = 0.00998	998.68	996.57	993.5	989.6	–	–	–	–	–	–
x1 = 0.01102	998.64	996.43	993.3	989.31	–	–	–	–	–	–
x1 = 0.01209	998.59	996.3	993.09	988.99	–	–	–	–	–	–
x1 = 0.01317	998.55	996.16	992.85	988.65	–	–	–	–	–	–
x1 = 0.01401	998.49	996.02	992.63	988.37	–	–	–	–	–	–
x1 = 0.01499	998.49	995.91	992.38	988.01	–	–	–	–	–	–
x1 = 0.01959	998.45	994.9	990.79	985.95	–	–	–	–	–	–
x1 = 0.02529	997	992.94	988.38	983.21	–	–	–	–	–	–
x1 = 0.0307	995.31	990.88	986.03	980.66	–	–	–	–	–	–
x1 = 0.03495	993.94	989.28	984.22	978.71	–	–	–	–	–	–
x1 = 0.04047	992.16	987.22	981.99	976.24	–	–	–	–	–	–
x1 = 0.04524	990.59	985.5	980.12	974.25	–	–	–	–	–	–
x1 = 0.04961	989.23	983.99	978.47	972.5	–	–	–	–	–	–
x1 = 0.05991	986.08	980.54	974.75	968.52	–	–	–	–	–	–
x1 = 0.06979	983.28	977.49	971.48	965.02	–	–	–	–	–	–
x1 = 0.07979	980.63	974.61	968.38	961.77	–	–	–	–	–	–
x1 = 0.08979	978.05	971.87	965.46	958.67	–	–	–	–	–	–
x1 = 0.1003	975.52	969.12	962.59	955.66	–	5.489	3.791	2.772	2.126	–
x1 = 0.2	957.51	950.15	942.62	934.8	926.83	7.107	4.854	3.483	2.584	1.979
x1 = 0.3	945.28	937.5	929.57	921.47	913.23	7.415	5.079	3.64	2.698	2.054
x1 = 0.4	935.77	927.76	919.6	911.3	902.87	7.234	4.994	3.594	2.672	2.038
x1 = 0.5	928.69	920.54	912.16	903.78	895.22	6.83	4.761	3.448	2.583	1.981
x1 = 0.6	923.16	914.96	906.6	898.14	889.56	6.352	4.476	3.272	2.465	1.901
x1 = 0.7	918.7	910.49	902.02	893.57	884.96	5.857	4.172	3.079	2.337	1.813
x1 = 0.7999	915.01	906.78	898.3	889.84	881.26	5.36	3.865	2.879	2.205	1.721
x1 = 0.9	912.08	903.8	895.3	886.83	878.23	4.885	3.56	2.679	2.068	1.629
x1 = 1	909.49	901.18	892.68	884.21	875.6	4.46	3.288	2.499	1.946	1.543
